The values that follow come from patent US7897621B2, “2-trifluoromethylnicotinamide derivatives as HDL-cholesterol raising agents” (Hoffmann-La Roche Inc., priority 2008, dated 2011).

Assay [1] relates to THP-1 cells. The assay can be described thus: Cholesterol efflux assay. The assay is classed as cell-based. Conditions: Homo sapiens; THP-1 cells differentiated to macrophages, [3H]cholesterol loaded, efflux induced by 10 μg/ml Apolipoprotein AI, 6 hrs; percent stimulation over DMSO. The protocol:
The ability of compounds of the invention to stimulate cholesterol efflux is determined in replicate cultures of THP-1 cells in 96-well microplates. Cells are plated at an initial density of 150,000 cells/well and differentiated to macrophages with the addition of PMA (100 ng/ml) for 72 hrs in 10% fetal bovine serum, 3 μI/L of b-mercaptoethanol, RPMI-1640 medium. Cells are washed once with RPMI-1640 and loaded with RPMI-1640 medium containing 2% FCS, 50 μg/ml acetylated LDL, and 10 μCi/ml [^3H]cholesterol for 48 hours at 37° C. After loading the cells are washed once with RPMI-1640 and incubated with the compound of interest from DMSO solutions for an additional 24 hrs in RPMI-1640 medium containing 1 mg/ml fatty acid free-bovine serum albumin (BSA). Upon incubation cells are washed once, and cholesterol efflux is induced by the addition of 10 μg/ml Apolipoprotein Al in RPMI-1640 containing 1 mg/ml BSA and in the presence of the compound for an additional 6 hrs. Following incubation radioactivity is determined in the supernatants and cholesterol efflux is expressed as the percent stimulation over replicate cultures treated only with DMSO. Sigmoidal curves were fitted using the XLfit3 program (ID Business Solutions Ltd. UK) and EC50 values were determined.

Assay [2] has as its target cannabinoid CB1 receptor (Homo sapiens, UniProt P21554). The assay can be described thus: CB1-receptor binding assay. The conditions noted are these: determined as described in WO 2006/106054, page 36. The method, then:
The affinity of the compounds of formula I of the present invention towards cannabinoid CB1 receptors was determined as described in WO 2006/106054, page 36.

Where only a bound is given, the exact number is not on record here.

Sequence of cannabinoid CB1 receptor (P21554 whole entry): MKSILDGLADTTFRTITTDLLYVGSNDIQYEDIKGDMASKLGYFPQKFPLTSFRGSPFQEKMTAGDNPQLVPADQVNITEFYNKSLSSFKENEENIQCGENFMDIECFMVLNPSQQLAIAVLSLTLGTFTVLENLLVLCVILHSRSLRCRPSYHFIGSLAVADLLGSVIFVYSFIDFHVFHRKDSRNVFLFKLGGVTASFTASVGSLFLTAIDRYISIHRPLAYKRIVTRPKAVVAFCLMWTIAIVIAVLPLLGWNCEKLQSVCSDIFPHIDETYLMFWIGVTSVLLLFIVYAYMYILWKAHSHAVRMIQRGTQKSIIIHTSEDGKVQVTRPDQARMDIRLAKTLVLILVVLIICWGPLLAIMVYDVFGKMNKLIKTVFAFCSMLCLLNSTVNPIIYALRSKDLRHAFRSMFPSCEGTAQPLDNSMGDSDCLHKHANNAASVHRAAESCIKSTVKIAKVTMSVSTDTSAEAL

With `CC(O)(CNC(=O)c1cc(-c2ccc(Cl)cc2)c(OCC(F)(F)F)nc1C(F)(F)F)C1CC1` (stereo not shown) [Example 1, 5-(4-chloro-phenyl)-N-(2-cyclopropyl-2-hydroxy-propyl)-6-(2,2,2-trifluoro-ethoxy)-2-trifluoromethyl-nicotinamide], the EC50 in assay [1] came out at 0.45 µM. The compound also gave an IC50 in assay [2] of approximately 10 µM.

For the compound `CC(O)(CNC(=O)c1cc(-c2ccc(Cl)c(Cl)c2)c(OCC(F)(F)F)nc1C(F)(F)F)C1CC1` (stereo not shown) [Example 2, N-(2-cyclopropyl-2-hydroxy-propyl)-5-(3,4-dichloro-phenyl)-6-(2,2,2-trifluoro-ethoxy)-2-trifluoromethyl-nicotinamide], the EC50 in assay [1] is 1.07 µM. The compound further yielded a half-maximal inhibitory concentration (IC50) in assay [2] of more than 10 µM.

As for `C[C@](O)(CNC(=O)c1cc(-c2ccc(Cl)c(Cl)c2)c(OCC(F)(F)F)nc1C(F)(F)F)C1CC1` [Example 2A, N-((R)-2-cyclopropyl-2-hydroxy-propyl)-5-(3,4-dichloro-phenyl)-6-(2,2,2-trifluoro-ethoxy)-2-trifluoromethyl-nicotinamide], in assay [1], the EC50 is 1.63 µM. Besides, the IC50 in assay [2] was more than 10 µM.

On to `C[C@@](O)(CNC(=O)c1cc(-c2ccc(Cl)c(Cl)c2)c(OCC(F)(F)F)nc1C(F)(F)F)C1CC1` [Example 2B, N-((S)-2-cyclopropyl-2-hydroxy-propyl)-5-(3,4-dichloro-phenyl)-6-(2,2,2-trifluoro-ethoxy)-2-trifluoromethyl-nicotinamide], for which the 50% effective concentration (EC50) in assay [1] was found to be 1.4 µM. This compound also gave an IC50 in assay [2] of more than 10 µM.

In the case of `CC(O)(CNC(=O)c1cc(-c2cccc(Cl)c2)c(OCC(F)(F)F)nc1C(F)(F)F)C1CC1` (stereo not shown) [Example 3, 5-(3-chloro-phenyl)-N-(2-cyclopropyl-2-hydroxy-propyl)-6-(2,2,2-trifluoro-ethoxy)-2-trifluoromethyl-nicotinamide], the half-maximal effective concentration (EC50) in assay [1] came out at 0.48 µM. The IC50 in assay [2] is more than 10 µM.

Consider `O=C(N[C@@H]1CCCC[C@H]1O)c1cc(-c2ccc(Cl)cc2)c(OCC(F)(F)F)nc1C(F)(F)F` [Example 4, 5-(4-chloro-phenyl)-N-((1R,2R)-2-hydroxy-cyclohexyl)-6-(2,2,2-trifluoro-ethoxy)-2-trifluoromethyl-nicotinamide], for which the EC50 in assay [1] turned out to be 0.39 µM. The same compound displayed an IC50 in assay [2] of 5.6 µM.

On to `O=C(N[C@@H]1CCCC[C@@H]1O)c1cc(-c2ccc(Cl)cc2)c(OCC(F)(F)F)nc1C(F)(F)F` [Example 4B, 5-(4-chloro-phenyl)-N-((1R,2S)-2-hydroxy-cyclohexyl)-6-(2,2,2-trifluoro-ethoxy)-2-trifluoromethyl-nicotinamide], for which the concentration for a half-maximal effect (EC50) in assay [1] is 1.2 µM. The same compound gave a concentration for half-maximal inhibition (IC50) in assay [2] of more than 10 µM.

On to `O=C(N[C@H]1CCCC[C@H]1O)c1cc(-c2ccc(Cl)cc2)c(OCC(F)(F)F)nc1C(F)(F)F` [Example 4C, 5-(4-chloro-phenyl)-N-((1S,2R)-2-hydroxy-cyclohexyl)-6-(2,2,2-trifluoro-ethoxy)-2-trifluoromethyl-nicotinamide], for which the concentration giving a half-maximal response (EC50) in assay [1] is 2.5 µM. Besides, the IC50 in assay [2] is more than 10 µM.

Regarding `CC(C)CC(CO)NC(=O)c1cc(-c2ccc(NS(C)(=O)=O)cc2)c(OCc2ccccn2)nc1C(F)(F)F` (stereo not shown) [Example 5, N-(1-hydroxymethyl-3-methyl-butyl)-5-(4-methanesulfonylamino-phenyl)-6-(pyridin-2-ylmethoxy)-2-trifluoromethyl-nicotinamide], the 50% effective concentration (EC50) in assay [1] amounted to 0.89 µM. The compound further showed an IC50 in assay [2] of approximately 10 µM.

Take `CS(=O)(=O)Nc1ccc(-c2cc(C(=O)N[C@@H]3CCCC[C@H]3O)c(C(F)(F)F)nc2OCC(F)(F)F)cc1` [Example 6, N-((1R,2R)-2-hydroxy-cyclohexyl)-5-(4-methanesulfonylamino-phenyl)-6-(2,2,2-trifluoro-ethoxy)-2-trifluoromethyl-nicotinamide]: in assay [1], the EC50 amounted to 0.56 µM. The same compound had a half-inhibitory concentration (IC50) in assay [2] of more than 10 µM.

Consider `O=C(N[C@@H]1CCCC[C@H]1O)c1cc(-c2ccc(Cl)c(Cl)c2)c(OCc2ccccn2)nc1C(F)(F)F` [Example 7, 5-(3,4-dichloro-phenyl)-N-((1R,2R)-2-hydroxy-cyclohexyl)-6-(pyridin-2-ylmethoxy)-2-trifluoromethyl-nicotinamide], for which the EC50 in assay [1] was 0.64 µM. This compound returned a 50% inhibitory concentration (IC50) in assay [2] of more than 10 µM.

One may read the EC50 as the concentration needed to bring the measured effect to its halfway point. By IC50 is commonly meant the concentration that inhibits the measured activity by half. A lower IC50 goes with inhibition by little substance.
